Patent US20210087222A1, “COMPOUNDS FOR TREATING NEURODEGENERATIVE DISORDERS” (ETHNODYNE, priority 2017, published 2021)

Legend:
[1] = test system: primary rat motor neurons injured with glutamate; test: Primary motor neuron culture survival after glutamate injury (in vitro ALS model); type: cell-based
Experimental: The aim of this study was to study the effect of CR591 on primary motor neuron culture from rat spinal cord (SC) injured by glutamate exposure (a well validated in vitro ALS model and model of motor neuron diseases).
Rat SC motor neurons were cultured as described by Martinou et al., Neuron. 1992 April; 8(4):737-44 and Wang et al., Hum Mol Genet. 2013 Dec. 1; 22(23):4706-19. Briefly, pregnant female rats (Wistar, Janvier labs) of 14 days gestation were killed by cervical dislocation. […] Cells were then centrifuged at 180 g for 10 min at +4° C. on a layer of BSA (3.5%) in L15 medium. […] The medium was changed every day.
The following conditions were assessed: • Control • + glutamate (5 μM 20 mn then 48 h) • + glutamate (5 μM 20 mn then 48 h)+CR591 1 pmol/L • + glutamate (5 μM 20 mn then 48 h)+CR591 10 pmol/L • + glutamate (5 μM 20 mn then 48 h)+CR591 100 pmol/L • + glutamate (5 μM 20 mn then 48 h)+CR591 1 nmol/L • + glutamate (5 μM 20 mn then 48 h)+CR591 10 nmol/L • + glutamate (5 μM 20 mn then 48 h)+CR591 100 nmol/L • + glutamate (5 μM 20 mn then 48 h)+CR591 1 μmol/L • + glutamate (5 μM 20 mn then 48 h)+CR591 10 μmol/L […]
For each condition, 6 wells were assessed, 30 pictures per well were taken using ImageXpress (Molecular Devices) with 20× magnification, to assess motor neuron survival (MAP-2). […]

[2] = test system: OPC (precursor cells of oligodendrocytes) in primary cocultures of central neurons and oligodendrocytes; test: In vitro MS (myelination) model, OPC number (A2B5 positive cells) at day 12; type: cell-based, rat; settings: 12 days treatment
Experimental: (§1) A reproducible in vitro myelination model based on primary cocultures of central neurons and oligodendrocytes culturing in 96-well plate is used and adapted to high throughput screening.
(§2) Neurons/oligodendrocytes were cultured as previously described by Charles et al., 2000. PNAS 97 7585-7590.
Briefly, pregnant Wistar female rats of 17 days gestation were killed by cervical dislocation (Janvier Labs, France) and the foetuses removed from the uterus. The forebrains were removed and placed in ice-cold medium of Leibovitz (L15; Pan Biotech, Germany) containing 2% of Penicillin-Streptomycin (Batch 1451013, PanBiotech) and 1% of bovine serum albumin (BSA) (Batch K180713, Pan Biotech). Cortexes were dissociated by trypsinisation for 20 min at 37° C., with Trypsin EDTA 1X (Batch 7310713, PanBiotech). The reaction was stopped by the addition of Dulbecco's modified Eagle's medium (DMEM) (Batch 9710913, PanBiotech) containing DNAase I grade II at 0.1 mg/mL (Batch H131108, PanBiotech) and 10% of foetal calf serum (Batch 41Q7218K, Invitrogen, France). […]
(§3) The immunolabeled cultures were automatically examined with ImageXpress (Molecular Devices) equipped with a LED at ×20 magnification. […] Number of A2B5 positive cells and number of MAG positive cells were automatically analyzed by using Custom module editor (Molecular Devices). […] All values were expressed as mean+/−SEM (s.e.mean) of the 6 wells. […]

[3] = test system: human HCT-116 colorectal carcinoma; test: Cytotoxicity test, MTS cell growth inhibition assay; type: cell-based; settings: HCT-116 cells, 72 h incubation, 8 concentrations, FIG. 1b
Experimental: (§4) Human MRC-5 cell line derived from normal lung tissue and human HCT-116 colorectal carcinoma were obtained from the American Type Culture Collection (ATCC, Rockville, Md.). Primary Human Umbilical Vein Endothelial Cells (HUVEC) isolated from the vein of the umbilical cord were obtained from Promocell (Germany). Cell lines were cultured according to the supplier's instructions. Human HCT-116 cells were grown in Gibco McCoy's 5A supplemented with 10% fetal calf serum (FCS) and 1% glutamine. Human MRC-5 cells were grown in DMEM supplemented with 10% fetal calf serum (FCS) and 1% glutamine. HUVECs were grown in Endothelial Cell Growth Medium 2 which is low-serum (2% V/V) media optimized for the cultivation of endothelial cells from large blood vessels.
(§5) Cells were counted using a Vi-cell XR (Beckman Coulter) and their viability assessed by 0.25% trypan blue dye exclusion. They were tested for the presence of mycoplasma before experiments with the Mycoplasma PCR Detection Kit (Applied Biological Materials Inc., Canada) in accordance with the manufacturer instructions and only mycoplasma-free cells were used for further investigations.
(§6) Cell lines were maintained at 37° C. in a humidified atmosphere containing 5% CO2. Cell growth inhibition was determined by an MTS assay according to the manufacturer's instructions (Promega, Madison, Wis., USA). […] After 24 h of culture, the cells were treated with the compound CR591 of example 1 at 8 different final concentrations. Each concentration was obtained from serial dilutions in culture medium starting from the stock solution. Control cells were treated with the vehicle. Experiments were performed in triplicate.
(§7) After 72 h of incubation, 20 μL of CellTiter 96® AQueous One Solution Reagent was added for 2 h before recording absorbance 490 nm with a spectrophotometric plate reader. The dose-response curves were plotted with Graph Prism software and the IC50 values were calculated using the Graph Prism software from polynomial curves (four or five-parameter logistic equations).

[4] = test system: Primary Human Umbilical Vein Endothelial Cells (HUVEC); test: as above; type: cell-based; settings: 72 h incubation, 8 concentrations, FIG. 1c
Experimental: as §4, §5, §6, §7

[5] = test system: Human MRC-5 cell line derived from normal lung tissue; test: as above; type: cell-based; settings: MRC-5 cells, 72 h incubation, 8 concentrations, FIG. 1a
Experimental: as §4, §5, §6, §7

[6] = test system: MAG positive cells (OL) in primary cocultures of central neurons and oligodendrocytes; test: In vitro MS (myelination) model, MAG evaluation at day 18; type: cell-based, rat; settings: 18 days of treatment, bell shape curve
Experimental: as §1, §2
Briefly, pregnant Wistar female rats of 17 days gestation were killed by cervical dislocation (Janvier Labs, France) and the foetuses removed from the uterus. The forebrains were removed and placed in ice-cold medium of Leibovitz (L15; Pan Biotech, Germany) containing 2% of Penicillin-Streptomycin (Batch 1451013, PanBiotech) and 1% of bovine serum albumin (BSA) (Batch K180713, Pan Biotech). Cortexes were dissociated by trypsinisation for 20 min at 37° C., with Trypsin EDTA 1X (Batch 7310713, PanBiotech). The reaction was stopped by the addition of Dulbecco's modified Eagle's medium (DMEM) (Batch 9710913, PanBiotech) containing DNAase I grade II at 0.1 mg/mL (Batch H131108, PanBiotech) and 10% of foetal calf serum (Batch 41Q7218K, Invitrogen, France). Cells were then mechanically dissociated by 3 passages through a 10 mL pipette. Cells were centrifuged at 180×g for 10 min at 4° C. temperature on a layer of BSA (3.5%) in L15 medium. The supernatant was discarded and cells of the pellet were re-suspended in DMEM containing 10% of FCS. […] The supernatant was discarded and cells of pellet were re-suspended in a culture medium consisting of Neurobasal (Batch 1625353, Invitrogen) supplemented with 2% of B27 (Batch 1618508, Invitrogen), 2 mM of L-glutamine (Batch 6620314, PanBiotech), 2% of PS solution, 1% of foetal calf serum (FCS) and 10 ng/mL of platelet-derived growth factor (PDGF-AA) (Batch H131205, PanBiotech). […]
as §3

N[C@@H](CCC(=O)O)C(=O)O [Glutamate, glutamate, reference compound]
motor neuron death ([1]; glutamate 5 μM for 20 min, read 48 h later, versus control = 100%): > 30%

CC1=C(CO)C(=O)O[C@@H]([C@@H](C)[C@H]2CCC3C4C[C@H](SC[C@H](N)C(=O)O)[C@]5(O)[C@@H](O)C=CC(=O)[C@]5(C)C4CC[C@@]32C)C1 (stereo partly shown) [CR591]
protective effect of motor neuron (survival, MAP-2) ([1]; added 1 h before glutamate (5 μM 20 min, then 48 h), between 1 nM and 10 nM, FIG. 4): moderate and significant protective effect | OPC number (A2B5 positive cells) ([2]; 1 pmol/L to 10 μmol/L, FIG. 2): did not show any significant increase | total number of OPCs at the highest doses ([2]; highest doses, inhibition of proliferation or toxic effect): decrease of the total number of OPCs was observed | toxicity (cell growth inhibition) [3]: does not show any toxicity | toxicity (cell growth inhibition) [4]: does not show any toxicity | toxicity (cell growth inhibition) [5]: does not show any toxicity | concentration of maximal effect on MAG positive cells / myelination [6]: 1 nM | number of MAG positive cells ([6]; FIG. 3a): able to increase the number of MAG positive cells | myelination of neurons by OL (area of MAG expression) ([6]; FIG. 3b): significantly improved the myelination of neurons by OL
